Measured values published in patent US20030119716A1, “Methods for screening, treating and diagnosing G-protein coupled receptor-related disorders and compositions thereof” (Wyeth, priority 2001, published 2003).
“Also recorded” adds a separate entry of the source. Where two headings read alike, the source gives them in different places.

Tests used:
[1] = test system: c-fos SRE activation in CHO cells stably expressing D2R; assay: SRE-luciferase reporter assay, quinpirole-stimulated c-fos SRE activation in CHO-D2R cells; format: cell-based, Chinese hamster
[2] = test system: Erk1/2 phosphorylation; assay: Western blot of phospho-Erk1/2 in CHO-D2R cells; format: cell-based, Chinese hamster; settings: 25 nM PD098059, 30 minutes before 100 nM quinpirole, 5 min
Procedure: Cell lysates were prepared by incubating cells for 5 minutes on ice with a lysis buffer containing […] NaCl, 50 mM Tris, pH 7.5, 5 mM EDTA, 1% Triton, and a mixture of protease inhibitors. Cells were then scraped off plates and sonicated. The detergent-insoluble material was removed by microcentrifugation for 10 minutes at 4° C. An equal amount of protein was run on SDS gels (Novex, Carlsbad, Calif.) and transferred to nitrocellulose (Bio-Rad, Hercules, Calif.). […] The membrane was washed, incubated for 1 hour in TBS containing appropriate HRP-conjugated secondary antibodies, washed again, and developed with the ECL reagent (Amersham Pharmacia Biotech, Piscataway, N.J.).

[3] = transfection of dominant-negative Rho family mutant or C3 (3 μg), 100 nM quinpirole

COC[C@H]1OC(=O)c2coc3c2[C@@]1(C)C1=C(C3=O)[C@@H]2CCC(=O)[C@@]2(C)C[C@H]1OC(C)=O [wortmannin, reference compound]
effect on quinpirole-stimulated SRE activation ([1]; 50 nM wortmannin, 100 nM quinpirole): no effect

COc1cccc(-c2cc(=O)c3ccccc3o2)c1N [PD098059, reference compound]
effect on quinpirole-stimulated Erk1/2 phosphorylation [2]: completely suppressed; also recorded: inhibited
effect on quinpirole-stimulated SRE activation ([1]; 25 nM PD098059, 100 nM quinpirole): only partially suppressed; also recorded: inhibited
diminution of quinpirole-stimulated SRE activity ([1]; 25 nM PD098059, 100 nM quinpirole, compared to vehicle): about 50%

CdcN17: dominant-negative mutant of Cdc42, Thr17 substituted with Asn
effect on quinpirole-stimulated SRE activation [1, 3]: suppressed

RhoN19: dominant-negative mutant of RhoA, Thr19 substituted with Asn
effect on quinpirole-stimulated SRE activation [1, 3]: suppressed

pertussis toxin [reference compound]
effect on quinpirole-stimulated SRE activation [1]: completely abolished; also recorded: abrogated
